Data on 42 molecules can be found in patent US9102622B2 (University of Connecticut, priority 2006, dated 2015).

Like-named read-outs stand apart in the source and are kept apart here.

In the assay the target is fatty acid amide hydrolase (FAAH) (Rattus norvegicus (Rat), UniProt P97612). As to the kind of experiment: FAAH enzyme assay: inhibition of anandamide (AEA) hydrolysis, arachidonic acid quantified by HPLC. The note with it: for inhibition at 100 µM: inhibitor 100 μM, partially purified rat brain FAAH, 15 min, read-out: % Inhibition (Concentration). Type of assay: biochemical. The method, then:
The resulting supernatant is injected onto the HPLC.

Where [1] appears, read: eight-point assay, anandamide hydrolysis by FAAH, read-out: IC50.
Where [2] appears, read: eight-point assay, calculated with Prizm software, read-out: Ki.

In general, IC50 refers to the concentration that gives 50% inhibition. The Ki is the dissociation constant of the complex between target and ligand, obtained from inhibition or displacement.

fatty acid amide hydrolase (FAAH), sequence (P97612 whole entry): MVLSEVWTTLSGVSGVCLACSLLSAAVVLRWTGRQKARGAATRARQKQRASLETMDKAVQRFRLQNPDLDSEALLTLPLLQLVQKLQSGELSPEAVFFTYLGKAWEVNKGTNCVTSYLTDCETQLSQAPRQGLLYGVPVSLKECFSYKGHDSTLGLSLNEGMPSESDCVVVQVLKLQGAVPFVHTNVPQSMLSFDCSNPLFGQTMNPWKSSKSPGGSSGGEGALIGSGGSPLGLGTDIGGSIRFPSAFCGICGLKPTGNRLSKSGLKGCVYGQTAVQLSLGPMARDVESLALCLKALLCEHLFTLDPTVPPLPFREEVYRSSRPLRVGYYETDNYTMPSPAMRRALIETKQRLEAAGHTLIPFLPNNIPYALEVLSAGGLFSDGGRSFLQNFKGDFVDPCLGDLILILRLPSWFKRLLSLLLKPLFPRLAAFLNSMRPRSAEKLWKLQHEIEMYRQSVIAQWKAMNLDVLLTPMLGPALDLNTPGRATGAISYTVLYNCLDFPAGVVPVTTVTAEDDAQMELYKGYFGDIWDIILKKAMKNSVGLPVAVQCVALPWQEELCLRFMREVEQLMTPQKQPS

Take `O=S(=O)(F)CCCc1ccccc1` [Compound 4.1, 3-Phenyl-propanesulfonyl fluoride, reference compound]: the inhibition at 100 µM (one-point assay) is 19%.
On the same count and under the same terms, for `O=S(=O)(F)CCCCCCCc1ccccc1` [Compound 4.2, 7-Phenyl-heptanesulfonyl fluoride, reference compound] the value was 31%.
Regarding `O=S(=O)(F)CCCCCCCCc1ccccc1` [Compound 4.3, 8-Phenyl-octanesulfonyl fluoride, reference compound], the “% Inhibition (Concentration)” value (one-point assay, concentration not given) worked out at 24%.
For the molecule `O=S(=O)(Cl)CCCCCCCc1cccc(OCc2ccccc2)c1` [Compound 12.2, 7-(3-Benzyloxy-phenyl)-heptanesulfonyl chloride], under setting [1], the IC50 was found to be 12 µM. Under setting [2], the inhibition constant (Ki) is 2.9 µM. Besides, under “one-point assay”, the inhibition at 100 µM was determined as 97%.
With `O=S(=O)(Cl)CCCCCCCc1ccccc1OCc1ccccc1` [Compound 12.3, 7-(2-Benzyloxy-phenyl)-heptanesulfonyl chloride], the half-inhibitory concentration (IC50) under setting [1] worked out at 1.75 µM. Moreover, under setting [2], the inhibitory constant (Ki) was 0.41 µM. Also, the inhibition at 100 µM (one-point assay) is 97%.
For the molecule `O=S(=O)(Cl)CCCCCc1ccc(OCc2ccccc2)cc1` [Compound 12.4, 5-(4-Benzyloxy-phenyl)-pentanesulfonyl chloride], the inhibition at 100 µM (one-point assay) amounted to 95%.
As to `O=S(=O)(F)CCCCCCCc1cccc(OCc2ccccc2)c1` [Compound 13.2, 7-(3-Benzyloxy-phenyl)-heptanesulfonyl fluoride], the inhibition at 100 µM (one-point assay) came to 97%.
`O=S(=O)(F)CCCCCCCc1ccccc1OCc1ccccc1` [Compound 13.3, 7-(2-Benzyloxy-phenyl)-heptanesulfonyl fluoride] yielded a half-inhibitory concentration (IC50) of 0.193 µM and a Ki of 0.046 µM. For the same molecule, the inhibition at 100 µM (one-point assay) was determined as 100%.
As to `O=S(=O)(F)CCCCCCCc1cccc(O)c1` [Compound 14.2, 7-(3-Hydroxy-phenyl)-heptanesulfonyl fluoride], under setting [1], the IC50 was 0.113 µM. The Ki under setting [2] is 0.026 µM. The inhibition at 100 µM (one-point assay) was 99%.
For `O=S(=O)(F)CCCCCCCc1ccccc1O` [Compound 14.3, 7-(2-Hydroxy-phenyl)-heptanesulfonyl fluoride], the IC50 under setting [1] came to 0.054 µM. Further, the inhibition constant (Ki) under setting [2] was 0.013 µM. Moreover, the inhibition at 100 µM (one-point assay) came to 100%.
In the same order, the values of `O=C(CCCOc1cccc(OCc2ccccc2)c1)C(F)(F)F` [Compound 23.5, 1,1,1-Trifluoro-5-[3-(Benzyloxy)phenoxy]-2-pentanone] are 6.9 µM, 0.77 µM and 93%.
For the molecule `O=C(CCCCOc1cccc(OCc2ccccc2)c1)C(F)(F)F` [Compound 23.6, 1,1,1-Trifluoro-6-[3-(Benzyloxy)phenoxy]-2-hexanone], the IC50 under setting [1] is 6.6 µM. The Ki under setting [2] was 0.47 µM. Besides, where the note is “one-point assay”, the inhibition at 100 µM worked out at 97%.
Take `O=C(CCCCCOc1cccc(OCc2ccccc2)c1)C(F)(F)F` [Compound 23.7, 1,1,1-Trifluoro-7-[3-(Benzyloxy)phenoxy]-2-heptanone]: the 50% inhibitory concentration (IC50) under setting [1] amounted to 0.47 µM. Further, under setting [2], the Ki is 0.052 µM. Also, where the note is “one-point assay”, the inhibition at 100 µM was 96%.
As for `O=C(CCCCOc1ccccc1OCc1ccccc1)C(F)(F)F` [Compound 23.9, 1,1,1-Trifluoro-6-[2-(Benzyloxy)phenoxy]-2-hexanone], under setting [1], the half-inhibitory concentration (IC50) was 0.66 µM. In addition, the inhibition constant (Ki) under setting [2] was 0.046 µM. The inhibition at 100 µM (one-point assay) was determined as 97%.
Take `O=C(CCCOc1ccccc1)C(F)(F)F` [Compound 23.11, 1,1,1-Trifluoro-5-phenoxy-2-pentanone]: the IC50 under setting [1] came out at 11.2 µM. In addition, the Ki under setting [2] is 1.2 µM. Besides, the inhibition at 100 µM (one-point assay) was found to be 79%.
On to `O=C(CCCOc1ccc(O)cc1)C(F)(F)F` [Compound 24.1, 1,1,1-Trifluoro-5-[4-(hydroxy)phenoxy]-2-pentanone], for which the IC50 under setting [1] turned out to be 14.9 µM. For the same molecule, the inhibition constant Ki under setting [2] was 1.7 µM. Further, the inhibition at 100 µM (one-point assay) was 68%.
Taken in the same sequence, the figures for `O=C(CCCCCOc1ccc(O)cc1)C(F)(F)F` [Compound 24.3, 1,1,1-Trifluoro-7-[4-(hydroxy)phenoxy]-2-heptanone] were 11.4 µM, 0.8 µM and 86%.
Regarding `Oc1cccc(OCCCC(O)(O)C(F)(F)F)c1` [Compound 24.5, 1,1,1-Trifluoro-2,2-dihydroxy-5-[3-(hydroxy)phenoxy]pentane], the half-inhibitory concentration (IC50) under setting [1] worked out at 22.8 µM. The Ki under setting [2] is 2.5 µM. Moreover, under “one-point assay”, the inhibition at 100 µM is 79%.
In the same order, the values of `O=C(CCCCOc1cccc(O)c1)C(F)(F)F` [Compound 24.6, 1,1,1-Trifluoro-6-[3-(hydroxy)phenoxy]-2-hexanone] are 29.4 µM, 2.07 µM and 85%.
Take `O=C(CCCCCOc1cccc(O)c1)C(F)(F)F` [Compound 24.7, 1,1,1-Trifluoro-7-[3-(hydroxy)phenoxy]-2-heptanone]: the IC50 under setting [1] stood at 5.02 µM. Under setting [2], the Ki is 0.44 µM.
For `O=C(CCCOc1ccccc1O)C(F)(F)F` [Compound 24.8, 1,1,1-Trifluoro-5-[2-(hydroxy)phenoxy]-2-pentanone], the IC50 under setting [1] was found to be 138 µM. For the same molecule, the inhibition constant (Ki) under setting [2] is 15.3 µM. The inhibition at 100 µM (one-point assay) turned out to be 43%.
Consider `O=C(CCCCCOc1ccccc1O)C(F)(F)F` [Compound 24.10, 1,1,1-Trifluoro-7-[2-(hydroxy)phenoxy]-2-heptanone], for which the IC50 under setting [1] is 26.2 µM. Further, the Ki under setting [2] is 1.8 µM. For the same molecule, the inhibition at 100 µM (one-point assay) turned out to be 82%.
Turning to `O=C(CCCc1ccccc1)C(F)(F)F` [Compound 27.1, 1,1,1-Trifluoro-5-phenyl-2-pentanone], under setting [1], the concentration for half-maximal inhibition (IC50) was found to be 69.4 µM. Moreover, the Ki under setting [2] was 4.6 µM. In addition, the inhibition at 100 µM (one-point assay) was 46%.
For the molecule `O=C(CCCCc1ccccc1)C(F)(F)F` [Compound 27.2, 1,1,1-Trifluoro-6-phenyl-2-hexanone], the IC50 under setting [1] is 18.8 µM. Moreover, the inhibitory constant (Ki) under setting [2] was 2.1 µM. In addition, the inhibition at 100 µM (one-point assay) stood at 53%.
`O=C(CCCCCc1ccccc1)C(F)(F)F` [Compound 27.3, 1,1,1-Trifluoro-7-phenyl-2-heptanone, reference compound]: under setting [1], the IC50 was determined as 11.1 µM. Moreover, under setting [2], the Ki was 1.23 µM. Besides, the inhibition at 100 µM (one-point assay) is 83%.
For `COc1ccc(CCCCC(=O)C(F)(F)F)cc1` [Compound 27.4, 1,1,1-Trifluoro-6-(4-methoxy-phenyl)-2-hexanone], under setting [1], the half-maximal inhibitory concentration (IC50) is 6.9 µM. Besides, under setting [2], the Ki was 0.6 µM. For the same molecule, where the note is “one-point assay”, the inhibition at 100 µM is 82%.
For `O=C(c1cccc(-c2cccc(OCc3ccccc3)c2)c1)C(F)(F)F` [Compound 30], under “one-point assay”, the inhibition at 100 µM is 33%.
With `O=C(Cc1cccc(-c2cccc(OCc3ccccc3)c2)c1)C(F)(F)F` [Compound 35, 1,1,1-Trifluoro-3-(3-benzyloxy-biphenyl-3-yl)-2-propanone], the inhibition at 100 µM (one-point assay) came out at 54%.
In the case of `CCCCCc1cc(OC)c(-c2ccc(C(=O)C(F)(F)F)cc2)c(OC)c1` [Compound 39.2, 1-(2′,6′-Dimethoxy-4′-pentylbiphenyl-4-yl)-2,2,2-trifluoroethanone], the inhibition at 100 µM (one-point assay) turned out to be 57%.
The same measure, in the same setting: for `CCCCCCC(C)(C)c1cc(O)c(-c2ccc(C(=O)C(F)(F)F)cc2)c(O)c1` [Compound 40.1, 1-(2′,6′-dihydroxy-4′-(2-methyloctan-2-yl)biphenyl-4-yl)-2,2,2-trifluoroethanone] the value was 36%.
Regarding `CCCCCCc1ccc(O)c(-c2ccc(C(=O)C(F)(F)F)cc2)c1OC` [Compound 40.3, 2,2,2-Trifluoro-1-(3′-hexyl-6′-hydroxy-2′-methoxybiphenyl-4-yl)ethanone], the inhibition at 100 µM (one-point assay) worked out at 81%.
On to `O=C(Nc1ccc(Br)cc1)OC1CCCCC1` [Compound 48.1, (4-Bromophenyl)carbamic acid cyclohexyl ester], for which, where the note is “one-point assay”, the inhibition at 100 µM stood at 25%.
As to `CCOC(=O)Nc1ccc(Br)cc1` [Compound 48.2], the concentration for half-maximal inhibition (IC50) under setting [1] was found to be 4 µM. The inhibition constant (Ki) under setting [2] is 1.2 µM. For the same molecule, the inhibition at 100 µM (one-point assay) was 84%.
On to `O=C(Nc1ccc(Br)cc1)OCc1ccccc1` [Compound 48.3, (4-Bromophenyl)carbamic acid benzyl ester], for which the inhibition at 100 µM (one-point assay) came out at 36%.
On the same count and under the same terms, for `O=C(Nc1ccc(Br)cc1)OC12CC3CC(CC(C3)C1)C2` [Compound 48.4] the value was 56%; for `O=C(Nc1ccc(I)cc1)Oc1ccccc1` [Compound 48.6, (4-Iodophenyl)carbamic acid phenyl ester], 84%; for `CCCCCCC(C)(C)c1cc(OCOC)c(-c2ccc(NC(=O)OCC)cc2)c(OCOC)c1` [Compound 52.2, 2′,6′-Bis(methoxymethoxy)-4′-(1,1-dimethylheptyl)[1,1′-biphenyl]-4-yl carbamic acid ethyl ester], 64%.
The same measure, in the same setting: the same measure for `CCCCCCC(C)(C)c1cc(OCOCC)c(-c2ccc(NC(=O)OCc3ccccc3)cc2)c(OCOCC)c1` [Compound 52.3, 2′,6′-Bis(ethoxymethoxy)-4′-(1,1-dimethylheptyl)[1,1′-biphenyl]-4-yl carbamic acid benzyl ester]: 41%.
Turning to `CCCCCCC(C)(C)c1cc(O)c(-c2ccc(NC(=O)OC3CCCCC3)cc2)c(O)c1` [Compound 53.1, 2′,6′-Dihydroxy-4′-(2-methyloctan-2-yl)biphenyl-4-yl carbamic acid cyclohexyl ester], the inhibition at 100 µM (one-point assay) was determined as 23%.
`CCCCCCC(C)(C)c1cc(O)c(-c2ccc(NC(=O)OCC)cc2)c(O)c1` [Compound 53.2, 2′,6′-Dihydroxy-4′-(1,1-dimethylheptyl)[1,1′-biphenyl]-4-yl carbamic acid ethyl ester]: the inhibition at 100 µM (one-point assay) was found to be 15%.
In the case of `CCCCCCC(C)(C)c1cc(O)c(-c2ccc(NC(=O)OCc3ccccc3)cc2)c(O)c1` [Compound 53.3, 2′,6′-Dihydroxy-4′-(2-methyloctane-2-yl)biphenyl-4-yl carbamic acid benzyl ester], the inhibition at 100 µM (one-point assay) turned out to be 89%.
Consider `O=C(NCc1ccc(Br)cc1)OCc1ccccc1` [Compound 57.2, (4-Bromobenzyl)carbamic acid benzyl ester], for which the inhibition at 100 µM (one-point assay) stood at 89%.
